Data as given in patent US7056491B2, “Monoterpenes and sesquiterpenes as chemotherapeutic and radiation sensitizers and immunomodulators” (Wisconsin Alumni Research Foundation, priority 2000, dated 2006).

Legend:
[1] = system: U251 cells; test: Clonogenic survival assay, POH with or without radiation, U251; format: cell-based, human
Protocol: (§1) Subconfluent cultures of human glioma cell line U251 were treated with 0.1–0.5 mM of POH for 72 hours and subsequently to increasing doses of radiation from 0.1 Gy to 8.5 Gy. Control cells were treated with the indicated doses of radiation alone. The cells were harvested and an optimum number of cells were allowed to grow for 14 days. The resulting colonies were stained and counted. Each graphed point represents mean values ± SE values of triplicate dishes.
(§2) Table 1 summarizing data from different cell lines treated with radiation, radiation plus POH, and POH alone. Subconfluent cultures of human glioma (T98G, M059K, U251), prostate (DU145, PC3), colon (DLD-1, HT29) and pancreatic (MIAPACA) cancer cell lines were treated with 0.1–0.5 mM of POH for 72 hours and subsequently to increasing doses of radiation from 0.1 Gy to 8.5 Gy. Control cells were treated with medium alone. The cells were harvested and an optimum number of cells were allowed to grow for 14 days. The resulting colonies were stained and counted. Each graphed point represents mean values ± SE values of triplicate dishes. Percentage survival was determined as the ratio of plating efficiencies for each irradiated group to that of the unirradiated control.

[2] = system: 21–26 kD proteins, including small GTP-binding proteins; conditions: dose dependent, distal to HMG-CoA reductase; cited from earlier work
[3] = system: glioma and prostate cancer cell lines; test: Apoptosis by dual colored (PI and Annexin V) flow cytometry; format: cell-based, human; conditions: 1 mM POH, 72 hours
Protocol: Glioma (T98G, U251, U353, U87 and MO59K) and prostate (DU145, PC3) cell lines were treated with or without 1 mM perillyl alcohol (POH) for 72 hours. The cells were harvested by trypsinization washed with PBS and subsequently staimed with antibody to annexin V conjugated to FITC and with PI (10 μg/ml). Viable (annexin V^−/PI^−) pre-apoptotic (annexin V^+/PI^−), apoptotic (annexin V^+/PI^+), and the residual damaged (annexin V^−/PI^+) cells were quantitated using this protocol.

[4] = system: glioma and prostate cancer cell lines; test: Augmentation of CD95 (Fas)-mediated apoptosis with anti-CD95 antibody CH11; format: cell-based; conditions: T98G, U87, U353, U251; 1 mM POH with CH11, absence of cycloheximide
Protocol: Referring to FIG. 25, semiconfluent cultures of glioma and prostate cancel cell lines were treated with the 1 mM POH in the presence or absence of the anti-CD95 antibody CH11 (100 ng/ml), radiation (8.5 Gy for T98G, U87MG, U373 and 5.5 Gy for PC3 and DU145), cycloheximide (CX) or a combination of all for a period of 72 hours. Cells treated with cycloheximide and anti-Fas served as a positive control. The death by treating cells with 1 mM POH or radiation alone was also quantitated. The estimation of apoptosis was done by staining the harvested cells with propidium iodide as described before. Each graphed point in the figure represents the average values of duplicate samples.

[5] = system: MIAPACA pancreatic cancer cells; test: Clonogenic survival assay, POH with or without radiation, MIAPACA; format: cell-based, human
Protocol: as §2

[6] = system: glioma, prostate, melanoma and colon cell lines; test: Cell cycle analysis by propidium iodide flow cytometry; format: cell-based; conditions: 1 mM POH 72 hours
Protocol: The indicated glioma (T98G, U251, U87, C6, U353 and MO59K), prostate (DU145 and PC3) melanoma (Mel5 and M21) and colon (DLD-1, HT29) cell lines were treated with medium or with 1 mM of POH dissolved in medium for 72 hours. The cells were harvested, fixed stained with propidium iodide and analyzed by flow cytometry to estimate the various phases of the cell cycle. Each point on the graph represents mean values of duplicate dishes.

[7] = system: T98G cells; test: Clonogenic survival, POH pretreatment then doxorubicin, T98G; format: cell-based, human; conditions: POH 0.1 mM–0.5 mM 48 hours then doxorubicin 0.01 uM–0.1 uM 48 hours
Protocol: Referring to FIG. 29, subconfluent cells of T98G cells were treated with varying concentrations of perillyl alcohol (0.1 mM–0.5 mM) for 48 hours and subsequently treated with the indicated dose of doxorubicin (0.01 uM–0.1 uM) for 48 hours. At the end of the treatment, POH-pretreated and untreated cells in the presence and absence of doxorubicin, were harvested, washed with PBS, plated at the desired cell number and incubated for two weeks. The colonies were stained with crystal violet and quantitated. Survival was determined as the ratio of plating efficiencies for each irradiated group to that of the untreated control. […] Doxorubicin at concentrations over 0.1 uM appeared to be toxic to the cells.

[8] = system: MO59K cells; test: Clonogenic survival assay, POH with or without radiation, MO59K; format: cell-based, human; conditions: for % SURVIVAL: MO59K
Protocol: as §1, with “MO 59K” for “U251”
as §2

[9] = system: Fas receptor; test: Fas receptor (CD95) staining by flow cytometry; format: cell-based, human; conditions: 0.1 mM–1 mM POH 72 hours; same cell lines except U87MG
Protocol: The cells were harvested using cell dissociation solution, and the resulting cell pellet was washed and incubated with biotinylated anti-human antibody, which served as a control to eliminate non-specific binding. Following the primary antibody incubation the cells were washed and subsequently stained with secondary antibody conjugated to phycoerythrin (PE) (PharMingen) and antibody to CD95 directly conjugated to allophycocyanin (APC). The stained cells were analyzed using a Beckton-Dickinson FACStar plus and the results were acquired using CELLquest software.
Subconfluent cultures of the indicated glioma (T98G, U251, U353, U87MG), prostate (DU145, PC3), colon (DLD-1) and melanoma (Mel5) cell lines were treated with varying concentrations of POH (0.1 mM–1 mM POH) dissolved in medium for 72 hours. At the end of the incubation, the cells were harvested using cell dissociation solution, and the resulting cell pellet was washed and incubated with biotinylated anti-human antibody to the FasL (PharMingen) or with an isotype matched anti-human antibody, which served as a control to eliminate non-specific binding. […] The stained cells were analyzed using a Beckton-Dickinson FACStar plus and the results were acquired using CELLquest. […]

Structure (SMILES): C=C(C)[C@@H]1CC=C(CO)CC1 [POH, Perillyl alcohol]
- % SURVIVAL ([1]; 0.1 mM POH 72 h, no radiation): 1.066 ± 0.200%
- % SURVIVAL ([1]; 0.1 mM POH + 5.5 Gy): 0.253 ± 0.004%
- % SURVIVAL ([1]; 0.3 mM POH 72 h, no radiation): 0.397 ± 0.059%
- % SURVIVAL ([1]; 0.3 mM POH + 5.5 Gy): 0.046 ± 0.005%
- % SURVIVAL ([1]; 0.5 mM POH 72 h, no radiation): 0.257 ± 0.010%
- % SURVIVAL ([1]; 0.5 mM POH + 5.5 Gy): 0.019 ± 0.001%
- isoprenylation of 21–26 kD proteins [2]: inhibit isoprenylation
- early and late apoptotic cells (annexin V/PI) [3]: increase in the percentage of early as well as late apoptotic cells
- sensitization to Fas mediated apoptosis [4]: sensitized
- % SURVIVAL ([5]; 0.1 mM POH 72 h, no radiation): 1.503 ± 0.05%
- % SURVIVAL ([5]; 0.1 mM POH + 5.5 Gy): 0.154 ± 0.018%
- % SURVIVAL ([5]; 0.3 mM POH 72 h, no radiation): 0.750 ± 0.05%
- % SURVIVAL ([5]; 0.3 mM POH + 5.5 Gy): 0.059 ± 0.008%
- % SURVIVAL ([5]; 0.5 mM POH 72 h, no radiation): 0.450 ± 0.07%
- % SURVIVAL ([5]; 0.5 mM POH + 5.5 Gy): 0.015 ± 0.0027%
- cell cycle effect ([6]; MO59K): G0/G1 block
- cell cycle effect ([6]; all the cell lines except MO59K): block in the G2/M phase
- sensitization to doxorubicin-induced cell death [7]: dose-dependent sensitization
- radiosensitization ([8]; M059K, cells not initially radiation resistant, 0.1–0.5 mM POH 72 h): lack of radiosensitization
- % SURVIVAL ([8]; 0.1 mM POH 72 h, no radiation): 0.939 ± 0.005%
- % SURVIVAL ([8]; 0.1 mM POH + 5.5 Gy): 0.061 ± 0.007%
- % SURVIVAL ([8]; 0.3 mM POH 72 h, no radiation): 0.660 ± 0.020%
- % SURVIVAL ([8]; 0.3 mM POH + 5.5 Gy): 0.080 ± 0.015%
- % SURVIVAL ([8]; 0.5 mM POH 72 h, no radiation): 0.623 ± 0.009%
- % SURVIVAL ([8]; 0.5 mM POH + 5.5 Gy): 0.056 ± 0.006%
- levels of the Fas receptor [9]: did not alter
